Patent US7319098B2, “1,3-dioxoisoindole derivatives having selective antagonism of T-type calcium channel” (Korea Institute of Science and Technology, priority 2006, dated 2008)

Target: T1, α1G T-type Ca2+ channels (Homo sapiens, UniProt O43497)
T1 construct: expressed in transfected cells; host or cells: HEK293 cells stably expressing α1G and Kir2.1
Experiment: Screening of activity against T-type calcium channel with FDSS6000 (fluorescence, KCl-induced [Ca2+]i increase)
Format: cell-based
Conditions: HEK293 cells expressing α1G and Kir2.1, read-out: Inhibitory effect (%) of T-type calcium channel, Inhibition (%); for inhibition at 10 µM: NA: Not Active
Procedure: Meanwhile, the antagonistic activity of the novel compound of Formula (1) herein against T-type calcium channel was tested as described below. The synthesized compounds were tested for the activity against T-type calcium channel with FDSS6000. Compounds with good activity were selected and IC50 values were exactly obtained by using electrophysiological whole cell patch clamp method. HEK293 cells which stably express both α1G and Kir2.1 subunits were grown in Dulbecco's modified Eagle's medium supplemented with 10% (v/v) fetal bovine serum, penicillin (100 U/mL), streptomycin (100 μg/mL), geneticin (500 μg/mL), and +puromycin (I μg/mL) at 37° C. in a humid atmosphere of 5% CO2 and 95% air. Cells were seeded into 96-well black wall clear bottom plates at a density of 4×10^4 cells/well and were used the next day for high-throughput screening (HTS) FDSS6000 assay. For FDSS6000 assay, cells were incubated for 60 min at room temperature with 5 μM fluo3/AM and 0.001% Pluronic F-127 in a HEPES-buffered solution composed of (in mM): 115 NaCl, 5.4 KCl, 0.8 MgCl2, 1.8 CaCl2, 20 HEPES, 13.8 glucose (pH 7.4). During the fluorescence-based FDSS6000 assay, cells in HEPES-buffered solution containing 10 mM CaCl2 were pretreated with a certain concentration of test compounds and then treated with high concentration of KCl ([…]). α1G T-type Ca^2+ channels were activated by using high concentration of KCl (70 mM) and the increase in [Ca^2+]i by KCl-induced depolarization was detected. During the whole procedure, cells were washed using the BIO-TEK 96-well washer. All data were collected and analyzed using FDSS6000 and related software (Hamamatsu, Japan). The IC50 results of examining the inhibitory effects of the compounds herein selected with FDSS6000 on the calcium influx through the T-type calcium channel are provided in TABLEs 1 and 2.

T1 sequence (O43497 whole entry): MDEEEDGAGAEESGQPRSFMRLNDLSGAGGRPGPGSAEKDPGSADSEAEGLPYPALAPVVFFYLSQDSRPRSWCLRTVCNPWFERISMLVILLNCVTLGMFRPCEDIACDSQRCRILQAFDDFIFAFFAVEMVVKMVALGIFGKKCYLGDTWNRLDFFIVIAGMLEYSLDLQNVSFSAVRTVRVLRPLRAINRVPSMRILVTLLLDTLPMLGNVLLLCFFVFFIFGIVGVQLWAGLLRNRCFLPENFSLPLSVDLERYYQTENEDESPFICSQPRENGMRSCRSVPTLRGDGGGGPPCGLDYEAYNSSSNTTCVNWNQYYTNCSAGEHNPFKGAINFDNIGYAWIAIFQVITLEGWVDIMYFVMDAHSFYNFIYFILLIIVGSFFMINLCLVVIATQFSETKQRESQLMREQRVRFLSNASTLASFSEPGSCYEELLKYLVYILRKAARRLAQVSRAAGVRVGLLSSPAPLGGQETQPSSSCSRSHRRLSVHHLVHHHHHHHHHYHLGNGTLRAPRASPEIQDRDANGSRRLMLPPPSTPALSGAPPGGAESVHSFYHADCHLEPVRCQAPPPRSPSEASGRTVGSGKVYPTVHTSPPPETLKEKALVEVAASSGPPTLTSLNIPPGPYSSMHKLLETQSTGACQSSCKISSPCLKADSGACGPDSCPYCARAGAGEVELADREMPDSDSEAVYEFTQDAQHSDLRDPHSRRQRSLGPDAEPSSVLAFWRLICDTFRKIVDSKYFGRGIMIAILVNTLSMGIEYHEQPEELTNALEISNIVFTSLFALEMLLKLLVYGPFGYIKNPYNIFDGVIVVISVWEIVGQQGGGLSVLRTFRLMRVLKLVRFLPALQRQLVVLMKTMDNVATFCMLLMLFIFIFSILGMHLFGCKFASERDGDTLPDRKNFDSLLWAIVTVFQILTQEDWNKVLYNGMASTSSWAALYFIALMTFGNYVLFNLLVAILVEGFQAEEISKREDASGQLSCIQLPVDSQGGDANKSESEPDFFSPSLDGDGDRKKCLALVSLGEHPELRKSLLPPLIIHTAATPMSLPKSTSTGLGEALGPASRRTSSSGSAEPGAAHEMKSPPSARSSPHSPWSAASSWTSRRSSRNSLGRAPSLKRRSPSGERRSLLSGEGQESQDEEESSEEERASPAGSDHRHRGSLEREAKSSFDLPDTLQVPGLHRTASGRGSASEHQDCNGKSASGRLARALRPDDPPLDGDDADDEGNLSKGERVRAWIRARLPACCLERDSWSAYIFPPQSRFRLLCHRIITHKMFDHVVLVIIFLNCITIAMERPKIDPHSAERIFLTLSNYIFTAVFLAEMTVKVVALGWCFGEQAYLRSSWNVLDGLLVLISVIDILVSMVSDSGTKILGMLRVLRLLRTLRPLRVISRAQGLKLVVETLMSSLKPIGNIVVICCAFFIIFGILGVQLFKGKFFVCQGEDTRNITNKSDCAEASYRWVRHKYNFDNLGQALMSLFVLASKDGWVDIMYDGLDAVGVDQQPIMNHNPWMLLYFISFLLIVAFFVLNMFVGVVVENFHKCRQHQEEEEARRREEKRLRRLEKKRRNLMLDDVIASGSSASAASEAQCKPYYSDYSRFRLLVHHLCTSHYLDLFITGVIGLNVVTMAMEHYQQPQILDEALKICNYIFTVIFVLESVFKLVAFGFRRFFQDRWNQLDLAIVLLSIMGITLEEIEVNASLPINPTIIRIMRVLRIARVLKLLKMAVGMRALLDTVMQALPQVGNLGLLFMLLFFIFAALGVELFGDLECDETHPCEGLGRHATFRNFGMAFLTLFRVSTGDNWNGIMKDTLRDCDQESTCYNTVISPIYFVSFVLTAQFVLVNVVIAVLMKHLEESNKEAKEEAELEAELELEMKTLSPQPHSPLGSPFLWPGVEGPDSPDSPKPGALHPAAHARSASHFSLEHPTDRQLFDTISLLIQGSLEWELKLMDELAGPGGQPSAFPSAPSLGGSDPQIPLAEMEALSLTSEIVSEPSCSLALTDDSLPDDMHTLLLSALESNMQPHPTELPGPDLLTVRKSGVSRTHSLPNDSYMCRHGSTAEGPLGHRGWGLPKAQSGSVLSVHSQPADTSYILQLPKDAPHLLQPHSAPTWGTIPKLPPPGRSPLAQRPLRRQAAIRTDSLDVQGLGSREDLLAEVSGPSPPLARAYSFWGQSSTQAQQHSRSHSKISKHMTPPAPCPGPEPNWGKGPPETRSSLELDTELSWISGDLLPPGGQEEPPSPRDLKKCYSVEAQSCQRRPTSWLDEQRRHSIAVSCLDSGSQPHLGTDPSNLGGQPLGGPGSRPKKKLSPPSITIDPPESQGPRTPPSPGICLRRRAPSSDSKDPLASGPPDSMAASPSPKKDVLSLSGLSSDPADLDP

| inhibition at 100 µM [%] | inhibition at 10 µM [%] | Compound |
| --- | --- | --- |
| 38.5 | – | O=C(NCCCN1CCOCC1)c1ccc2c(c1)C(=O)N(Cc1ccccc1)C2=O [Compound 54, 4-{3-[(2-benzyl-1,3-dioxo-2,3-dihydro-1H-isoindol-5-carbonyl)-amino]-propyl}-4-morpholinium chloride] |
| 79.9 | – | O=C(NCCN1CCCCC1)c1ccc2c(c1)C(=O)N(Cc1ccccc1F)C2=O [Compound 55, 1-(2-{[2-(2-fluoro-benzyl)-1,3-dioxo-2,3-dihydro-1H-isoindol-5-carbonyl]-amino}-ethyl)-piperidinium chloride] |
| 78.8 | – | CC1CCCCN1CCCNC(=O)c1ccc2c(c1)C(=O)N(Cc1ccccc1F)C2=O (centres unmarked) [Compound 56, 1-(3-{[2-(2-fluoro-benzyl)-1,3-dioxo-2,3-dihydro-1H-isoindol-5-carbonyl]-amino}-propyl)-2-methyl-piperidinium chloride] |
| 65.5 | – | O=C(NCCN1CCCC1)c1ccc2c(c1)C(=O)N(Cc1ccccc1F)C2=O [Compound 57, 1-(2-{[2-(2-fluoro-benzyl)-1,3-dioxo-2,3-dihydro-1H isoindol-5-carbonyl]-amino}-ethyl)-pyrrolidinium chloride] |
| 70.6 | – | O=C(NCCCN1CCCC1)c1ccc2c(c1)C(=O)N(Cc1ccccc1F)C2=O [Compound 58, 1-(3-{[2-(2-fluoro-benzyl)-1,3-dioxo-2,3-dihydro-1H-isoindol-5-carbonyl]-amino}-propyl)-pyrrolidinium chloride] |
| 30.2 | – | O=C(NCCN1CCOCC1)c1ccc2c(c1)C(=O)N(Cc1ccccc1F)C2=O [Compound 59, 4-(2-{[2-(2-fluoro-benzyl)-1,3-dioxo-2,3-dihydro-1H-isoindol-5-carbonyl]-amino}-ethyl)-4-morpholinium chloride] |
| 60.8 | – | O=C(NCCCN1CCOCC1)c1ccc2c(c1)C(=O)N(Cc1ccccc1F)C2=O [Compound 60, 4-(3-{[2-(2-fluoro-benzyl)-1,3-dioxo-2,3-dihydro-1H-isoindol-5-carbonyl]-amino}-propyl)-4-morpholinium chloride] |
| 83.5 | – | CC1CCCCN1CCCNC(=O)c1ccc2c(c1)C(=O)N(Cc1cccc(F)c1)C2=O (centres unmarked) [Compound 62, 1-(3-{[2-(3-fluoro-benzyl)-1,3-dioxo-2,3-dihydro-1H-isoindol-5-carbonyl]-amino}-propyl)-2-methyl-piperidinium chloride] |
| 73.4 | – | O=C(NCCN1CCCC1)c1ccc2c(c1)C(=O)N(Cc1cccc(F)c1)C2=O [Compound 63, 1-(2-{[2-(3-fluoro-benzyl)-1,3-dioxo-2,3-dihydro-1H-isoindol-5-carbonyl]-amino}-ethyl)-pyrrolidinium chloride] |

More lines, now with the values behind:

| Compound | inhibition at 100 µM [%] | inhibition at 10 µM [%] |
| --- | --- | --- |
| Cc1ccccc1N1C(=O)c2ccc(C(=O)NCCN3CCOCC3)cc2C1=O [Compound 32, 4-{2-[(1,3-dioxo-2-o-tolyl-2,3-dihydro-1H-isoindol-5-carbonyl)-amino]-ethyl}-4-morpholinium chloride] | 22.3 | – |
| Cc1cccc(N2C(=O)c3ccc(C(=O)NCCN4CCCCC4)cc3C2=O)c1 [Compound 33, 1-{2-[(1,3-dioxo-2-m-tolyl-2,3-dihydro-1H-isoindol-5-carbonyl)-amino]-ethyl}-piperidinium chloride] | 64.5 | – |
| Cc1cccc(N2C(=O)c3ccc(C(=O)NCCCN4CCCCC4C)cc3C2=O)c1 (centres unmarked) [Compound 34, 1-{3-[(1,3-dioxo-2-m-tolyl-2,3-dihydro-1H-isoindol-5-carbonyl)-amino]-propyl}-2-methyl-piperidinium chloride] | – | 10 |
| Cc1cccc(N2C(=O)c3ccc(C(=O)NCCN4CCCC4)cc3C2=O)c1 [Compound 35, 1-{2-[(1,3-dioxo-2-m-tolyl-2,3-dihydro-1H-isoindol-5-carbonyl)-amino]-ethyl}-pyrrolidinium chloride] | – | 4.7 |
| Cc1cccc(N2C(=O)c3ccc(C(=O)NCCCN4CCCC4)cc3C2=O)c1 [Compound 36, 1-{3-[(1,3-dioxo-2-m-tolyl-2,3-dihydro-1H-isoindol-5-carbonyl)-amino]-propyl}-pyrrolidinium chloride] | – | 5.3 |
| Cc1cccc(N2C(=O)c3ccc(C(=O)NCCN4CCOCC4)cc3C2=O)c1 [Compound 37, 4-{2-[(1,3-dioxo-2-m-tolyl-2,3-dihydro-1H-isoindol-5-carbonyl)-amino]-ethyl}-4-morpholinium chloride] | – | 1.3 |
| Cc1cccc(N2C(=O)c3ccc(C(=O)NCCCN4CCOCC4)cc3C2=O)c1 [Compound 38, 4-{3-[(1,3-dioxo-2-m-tolyl-2,3-dihydro-1H-isoindol-5-carbonyl)-amino]-propyl}-4-morpholinium chloride] | – | 4.2 |
| Cc1ccc(N2C(=O)c3ccc(C(=O)NCCN4CCCCC4)cc3C2=O)cc1 [Compound 39, 1-{2-[(1,3-dioxo-2-p-tolyl-2,3-dihydro-1H-isoindol-5-carbonyl)-amino]-ethyl}-piperidinium chloride] | 39.4 | – |
| Cc1ccc(N2C(=O)c3ccc(C(=O)NCCCN4CCCCC4C)cc3C2=O)cc1 (centres unmarked) [Compound 40, 1-{3-[(1,3-dioxo-2-p-tolyl-2,3-dihydro-1H-isoindol-5-carbonyl)-amino]-propyl}-2-methyl-piperidinium chloride] | – | 11.7 |
| Cc1ccc(N2C(=O)c3ccc(C(=O)NCCN4CCCC4)cc3C2=O)cc1 [Compound 41, 1-{2-[(1,3-dioxo-2-p-tolyl-2,3-dihydro-1H-isoindol-5-carbonyl)-amino]-ethyl}-pyrrolidinium chloride] | – | 2 |
| COc1cccc(N2C(=O)c3ccc(C(=O)NCCN4CCCCC4)cc3C2=O)c1 [Compound 46, 1-(2-{[2-(3-methoxy-phenyl)-1,3-dioxo-2,3-dihydro-1H-isoindol-5-carbonyl]-amino}-ethyl)-piperidinium chloride] | 31.4 | – |
| COc1ccc(N2C(=O)c3ccc(C(=O)NCCN4CCCCC4)cc3C2=O)cc1 [Compound 48, 1-(2-{[2-(4-methoxy-phenyl)-1,3-dioxo-2,3-dihydro-1H-isoindol-5-carbonyl]-amino}-ethyl)-piperidinium chloride] | 31.4 | – |
| O=C(NCCN1CCCCC1)c1ccc2c(c1)C(=O)N(Cc1ccccc1)C2=O [Compound 49, 1-{2-[(2-benzyl-1,3-dioxo-2,3-dihydro-1H-isoindol-5-carbonyl)-amino]-ethyl}-piperidinium chloride] | 72.4 | – |
| CC1CCCCN1CCCNC(=O)c1ccc2c(c1)C(=O)N(Cc1ccccc1)C2=O (centres unmarked) [Compound 50, 1-{3-[(2-benzyl-1,3-dioxo-2,3-dihydro-1H-isoindol-5-carbonyl)-amino]-propyl}-2-methyl-piperidinium chloride] | 69.6 | – |
| O=C(NCCN1CCCC1)c1ccc2c(c1)C(=O)N(Cc1ccccc1)C2=O [Compound 51, 1-{2-[(2-benzyl-1,3-dioxo-2,3-dihydro-1H-isoindol-5-carbonyl)-amino]-ethyl}-pyrrolidinium chloride] | 48.4 | – |
| O=C(NCCCN1CCCC1)c1ccc2c(c1)C(=O)N(Cc1ccccc1)C2=O [Compound 52, 1-{3-[(2-benzyl-1,3-dioxo-2,3-dihydro-1H-isoindol-5-carbonyl)-amino]-propyl}-pyrrolidinium chloride] | 45.8 | – |
| O=C(NCCN1CCOCC1)c1ccc2c(c1)C(=O)N(Cc1ccccc1)C2=O [Compound 53, 4-{2-[(2-benzyl-1,3-dioxo-2,3-dihydro-1H-isoindol-5-carbonyl)-amino]-ethyl}-4-morpholinium chloride] | 42.5 | – |
